Activity calls are given as the source filed them.
Columns and labels:
[1] = Late stage assay provider results from the probe development effort to identify inhibitors of the Plasmodium falciparum M18 Aspartyl Aminopeptidase (M18AAP): radiolabel-based cell-based dose response assay to identify compounds that inhibit P. falciparum growth in RBCs, Set 2..; assay type: functional
[2] = viability loss in HepG2 hepatoma cells – cell-based, ATP luminescence, cherry-pick, activator set 2, cytotoxicity control, dose response (AID 1053143); assay type: functional
[3] = disruptors of Keap1/Nrf2 protein interaction – biochemical, fluorescence polarization, dry powder, set 3, dose response (AID 651806)
[4] = HEK293 Cytotoxicity Assay Measured in Cell-Based System Using Plate Reader - 7071-01_Inhibitor_Dose_CherryPick_Activity_Set2.; assay type: functional
HeLa = assay: viability loss in HeLa cells – cell-based, ATP luminescence, cherry-pick samples, cytotoxicity control, dose response (AID 687004); assay type: functional; details: Homo sapiens
HEK293 = assay: viability loss in HEK293T cells – cell-based, ATP luminescence, cherry-pick samples, cytotoxicity control, dose response (AID 687005); assay type: functional; details: Homo sapiens;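 also: cells exposed to compound for 48 hours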
[5] = reduction of Shn3 3'UTR-driven luciferase in osteoblasts – cell-based, Clone20 osteoblasts, firefly luciferase, cherry-picked, dose response (AID 624132); assay type: functional;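 also: firefly luciferase luminescence from reporter carrying the Shn3 3'UTR in osteoblasts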
[6] = target: COUP transcription factor 2 (Homo sapiens, UniProt P24468); assay: Luminescence-based cell-based high throughput dose response assay to identify inhibitors of COUP-TFII (NR2F2).; assay type: functional;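 also: HEK293 cells transiently cotransfected with COUP-TFII expression vector and reporter; luciferase reporter luminescence driven by COUP-TFII from the pX2-168 reporter plasmid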
Protein Wnt-3a = Protein Wnt-3a (Mus musculus, UniProt P27467); assay: antagonism of Wnt3a pathway luciferase reporter – Wnt-LIGHT cells, luminescence, selectivity assay for Gli-SUFU antagonist project, dose response (AID 651570); assay type: functional; details: read-out: IC50_Mean;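 also: Wnt-LIGHT reporter cells stimulated with conditioned medium from Wnt3a-producing cells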
[7] = non-specific 3'UTR reporter inhibition in Clone20-Shn3RL – cell-based, Renilla luciferase, cherry-picked, counter-screen for Shn3 inhibitor project, dose response (AID 624133); assay type: functional
INS1 = assay: INS-1E survival protection against cytokine death – cell-based, luminescence, retest, dose response (AID 449756); assay type: functional; details: Rattus norvegicus;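 also: cell death triggered by IL-1 beta plus TNF-alpha plus IFN-gamma mixture; protective hits raise ATP signal compared with cytokine alone wells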
[8] = loss of viability in HepG2 cells – cell-based, CellTiter-Glo, cherry-picked, cytotoxicity control for Shn3 inhibitor project, dose response (AID 624134); assay type: functional
Caspase-6 = target: T1, Caspase-6 (Homo sapiens, UniProt P55212); assay: inhibition of CASP6 peptide cleavage – biochemical, VEID-R110 fluorescence, dry powder retest, dose response (AID 743332)
T1 sequence (P55212 whole entry): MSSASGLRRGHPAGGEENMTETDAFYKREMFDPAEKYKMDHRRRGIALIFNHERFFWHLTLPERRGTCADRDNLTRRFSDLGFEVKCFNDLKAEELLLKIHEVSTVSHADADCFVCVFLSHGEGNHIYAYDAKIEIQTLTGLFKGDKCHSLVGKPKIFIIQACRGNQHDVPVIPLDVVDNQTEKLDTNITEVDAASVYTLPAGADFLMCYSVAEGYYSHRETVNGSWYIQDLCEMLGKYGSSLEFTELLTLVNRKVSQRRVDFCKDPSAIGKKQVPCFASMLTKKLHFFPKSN

[9] = target: Kappa-type opioid receptor (Homo sapiens, UniProt P41145); assay: Late-stage fluorescence-based cell-based dose response assay for antagonists of kappa opioid receptor 1 (OPRK1).; assay type: functional
[10] = target: Sphingosine 1-phosphate receptor 1 (Homo sapiens, UniProt P21453); assay: Late-stage counterscreen for antagonists of kappa opioid receptor 1 (OPRK1): fluorescence-based cell-based dose response assay to identify antagonists of Sphingosine 1-Phosphate Receptor 1 (S1P1).; assay type: functional
[11] = target: Delta-type opioid receptor (Homo sapiens, UniProt P41143); assay: Late-stage results from the probe development effort to identify antagonists of OPRK1: fluorescence-based cell-based dose response OPRD1 counterscreen, Set 2.; assay type: functional
Mu-type opioid receptor = Mu-type opioid receptor (Homo sapiens, UniProt P35372); assay: Late-stage results from the probe development effort to identify antagonists of OPRK1: luminescence-based cell-based dose response OPRM1 counterscreen, Set 2.; assay type: functional
[12] = target: Metabotropic glutamate receptor 3 (Rattus norvegicus, UniProt P31422); assay: inhibition of rat mGlu3 glutamate signaling – HEK/GIRK cells, thallium flux, dose response (AID 651839); assay type: functional
[13] = Luminescence Cell-Based Dose Response to Identify Activators of 5'UTR Stem-Loop Driven Prion Protein mRNA Translation in H4-C Neuroglioblastoma Cells. [Related pubchem assays: 1829 (Project Summary), 1814 (Primary HTS)]; assay type: functional
[14] = target: Peroxisome proliferator-activated receptor gamma/Nuclear receptor corepressor 2 (Homo sapiens, UniProt P37231+Q9Y618); assay: Counterscreen for NR2E3 inverse agonists: TR-FRET-based biochemical high throughput dose response assay to identify inverse agonists of the interaction between peroxisome proliferator-activated receptor gamma (PPARg) and nuclear receptor co-repressor 2 (NCOR2).; assay type: functional
[15] = target: Photoreceptor-specific nuclear receptor (Homo sapiens, UniProt Q9Y5X4); assay: ligands suppressing NR2E3 nuclear receptor activity – biochemical, TR-FRET, dose response (AID 463256); assay type: functional
[16] = Luminescence Cell-Based Dose Response HTS to Identify Activators of Luciferase Translation or Activity in H4 […] Cells. [Related pubchem assays: 1829 (Project Summary), 1814 (Primary HTS)]; assay type: functional
[17] = Luminescence Cell-Based Dose Confirmation to Identify Activators of 5'UTR Stem-Loop Driven Alpha-Synuclein mRNA Translation in H4 Neuroglioblastoma Cells. [Related pubchem assays: 1829 (Project Summary), 1814 (Primary HTS)]; assay type: functional
[18] = Luminescence Cell-Based Dose Response to Identify Activators of Luciferase Translation or Activity in H4-C Neuroglioblastoma Cells. [Related pubchem assays: 1829 (Project Summary), 1814 (Primary HTS)]; assay type: functional
[19] = target: Fructose-bisphosphate aldolase (Mycobacterium tuberculosis, UniProt P9WQA3); assay: Fluorescence-based biochemical high throughput dose response assay for inhibitors of the fructose-bisphosphate aldolase (FBA) of M. tuberculosis.; assay type: functional
H4 = assay: Luminescence Cell-Based Dose Response HTS to Identify Activators of 5'UTR Stem-Loop Driven Prion Protein mRNA Translation in H4 Neuroglioblastoma Cells. [Related pubchem assays: 1829 (Project Summary), 1814 (Primary HTS)]; assay type: functional; details: Homo sapiens
[20] = A549 cell cytotoxicity, dose response, cytotoxicity control, plate reader, cherry-pick, antagonist series (AID 743412); assay type: functional, cell-based
[21] = inhibition of bursicon-driven LGR2 cAMP signaling – cell-based, HEK293, CRE-luciferase reporter, cherry pick, dose response (AID 743342); assay type: functional
BHK-21 = assay: viability loss in BHK-21 cells – cell-based, plate reader, cherry-pick samples, cytotoxicity control, dose response (AID 687030); assay type: functional; details: Mesocricetus auratus
[22] = target: Potassium channel subfamily K member 3 (Homo sapiens, UniProt O14649); assay: inhibition of human KCNK3 channel flux – CHO cells, FluxOR thallium flux, SAR follow-up (AID 652212); assay type: functional
[23] = target: Potassium channel subfamily K member 9 (Homo sapiens, UniProt Q9NPC2); assay: KCNK9 flux blockade, concentration-response – cell-based, FluxOR thallium flux, selectivity assay for TASK1 inhibitor project, SAR follow-up (AID 652211); assay type: functional;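 also: potency is for inhibitors of the channel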
Potassium channel subfamily K member 9, sequence (Q9NPC2 whole entry): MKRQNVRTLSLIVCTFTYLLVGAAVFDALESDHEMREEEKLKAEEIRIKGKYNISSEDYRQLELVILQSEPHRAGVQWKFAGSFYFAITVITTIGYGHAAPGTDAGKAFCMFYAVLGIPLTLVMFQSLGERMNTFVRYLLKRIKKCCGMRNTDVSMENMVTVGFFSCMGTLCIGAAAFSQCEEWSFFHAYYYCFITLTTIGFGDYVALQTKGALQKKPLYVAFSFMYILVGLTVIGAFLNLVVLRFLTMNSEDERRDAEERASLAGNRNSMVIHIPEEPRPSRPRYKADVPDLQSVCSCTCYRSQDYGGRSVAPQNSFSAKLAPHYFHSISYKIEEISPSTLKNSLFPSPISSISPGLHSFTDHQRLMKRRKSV

Metabotropic glutamate receptor 3, sequence (P31422 whole entry): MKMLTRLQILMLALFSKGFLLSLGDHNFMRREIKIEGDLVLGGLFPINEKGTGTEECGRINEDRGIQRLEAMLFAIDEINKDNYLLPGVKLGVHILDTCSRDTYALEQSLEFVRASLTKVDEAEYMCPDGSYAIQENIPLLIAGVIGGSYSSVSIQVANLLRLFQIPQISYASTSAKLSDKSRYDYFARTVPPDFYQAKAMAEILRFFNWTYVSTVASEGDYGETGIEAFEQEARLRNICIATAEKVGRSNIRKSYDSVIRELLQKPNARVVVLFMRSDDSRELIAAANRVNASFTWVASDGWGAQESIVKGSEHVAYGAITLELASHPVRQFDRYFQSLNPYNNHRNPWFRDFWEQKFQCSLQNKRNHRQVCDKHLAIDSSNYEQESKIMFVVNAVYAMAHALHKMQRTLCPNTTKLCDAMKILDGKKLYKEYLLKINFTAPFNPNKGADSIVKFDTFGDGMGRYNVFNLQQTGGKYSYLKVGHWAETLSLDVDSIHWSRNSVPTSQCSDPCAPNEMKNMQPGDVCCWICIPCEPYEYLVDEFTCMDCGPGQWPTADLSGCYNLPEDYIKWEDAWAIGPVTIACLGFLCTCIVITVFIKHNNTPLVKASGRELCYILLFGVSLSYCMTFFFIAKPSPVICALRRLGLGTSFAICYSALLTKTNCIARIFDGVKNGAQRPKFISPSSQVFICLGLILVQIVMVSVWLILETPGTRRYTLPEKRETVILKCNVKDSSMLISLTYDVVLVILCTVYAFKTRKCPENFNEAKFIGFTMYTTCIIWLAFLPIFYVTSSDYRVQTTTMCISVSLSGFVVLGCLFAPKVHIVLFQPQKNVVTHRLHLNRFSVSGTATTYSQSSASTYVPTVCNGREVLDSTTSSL
Photoreceptor-specific nuclear receptor, sequence (Q9Y5X4 whole entry): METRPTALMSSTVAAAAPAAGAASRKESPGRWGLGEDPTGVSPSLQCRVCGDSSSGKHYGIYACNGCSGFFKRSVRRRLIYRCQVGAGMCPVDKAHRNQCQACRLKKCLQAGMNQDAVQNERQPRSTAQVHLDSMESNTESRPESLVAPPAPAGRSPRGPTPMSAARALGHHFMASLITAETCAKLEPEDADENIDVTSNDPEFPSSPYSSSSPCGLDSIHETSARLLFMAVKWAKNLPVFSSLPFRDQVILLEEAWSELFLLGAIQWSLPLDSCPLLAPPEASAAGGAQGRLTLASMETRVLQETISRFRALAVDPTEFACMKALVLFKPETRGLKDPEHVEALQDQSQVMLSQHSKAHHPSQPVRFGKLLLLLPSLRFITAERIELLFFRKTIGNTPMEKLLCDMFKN
Mu-type opioid receptor, sequence (P35372 whole entry): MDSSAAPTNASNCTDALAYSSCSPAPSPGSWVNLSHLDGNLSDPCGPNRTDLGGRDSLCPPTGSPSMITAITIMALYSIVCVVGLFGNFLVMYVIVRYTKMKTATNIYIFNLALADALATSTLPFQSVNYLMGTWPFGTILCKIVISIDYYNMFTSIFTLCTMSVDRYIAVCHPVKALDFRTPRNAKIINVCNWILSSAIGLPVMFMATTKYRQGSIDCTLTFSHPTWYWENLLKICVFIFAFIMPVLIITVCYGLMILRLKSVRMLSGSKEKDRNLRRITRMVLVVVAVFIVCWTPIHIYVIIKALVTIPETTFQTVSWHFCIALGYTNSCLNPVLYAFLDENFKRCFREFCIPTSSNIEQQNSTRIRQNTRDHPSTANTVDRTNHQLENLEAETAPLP
Potassium channel subfamily K member 3, sequence (O14649 whole entry): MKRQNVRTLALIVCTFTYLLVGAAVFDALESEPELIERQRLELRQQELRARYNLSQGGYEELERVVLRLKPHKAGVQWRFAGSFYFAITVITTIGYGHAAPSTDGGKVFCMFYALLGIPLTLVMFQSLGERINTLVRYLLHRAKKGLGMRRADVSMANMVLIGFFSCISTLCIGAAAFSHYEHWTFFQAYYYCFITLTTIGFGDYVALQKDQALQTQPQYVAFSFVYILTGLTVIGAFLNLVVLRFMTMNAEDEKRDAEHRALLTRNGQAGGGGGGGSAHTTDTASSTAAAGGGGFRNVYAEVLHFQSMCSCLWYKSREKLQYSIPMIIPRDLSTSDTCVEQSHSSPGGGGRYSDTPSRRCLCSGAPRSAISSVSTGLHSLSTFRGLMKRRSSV
Sphingosine 1-phosphate receptor 1, sequence (P21453 whole entry): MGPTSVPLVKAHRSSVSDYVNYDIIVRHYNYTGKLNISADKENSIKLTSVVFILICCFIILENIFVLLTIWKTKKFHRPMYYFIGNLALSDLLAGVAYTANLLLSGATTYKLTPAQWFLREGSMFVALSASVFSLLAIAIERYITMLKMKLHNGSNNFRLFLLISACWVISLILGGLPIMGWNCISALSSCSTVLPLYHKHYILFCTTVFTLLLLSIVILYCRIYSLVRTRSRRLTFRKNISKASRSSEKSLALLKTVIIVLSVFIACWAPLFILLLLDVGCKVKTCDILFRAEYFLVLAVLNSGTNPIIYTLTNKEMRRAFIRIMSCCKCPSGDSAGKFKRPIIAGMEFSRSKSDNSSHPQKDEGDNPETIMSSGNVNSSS
Delta-type opioid receptor, sequence (P41143 whole entry): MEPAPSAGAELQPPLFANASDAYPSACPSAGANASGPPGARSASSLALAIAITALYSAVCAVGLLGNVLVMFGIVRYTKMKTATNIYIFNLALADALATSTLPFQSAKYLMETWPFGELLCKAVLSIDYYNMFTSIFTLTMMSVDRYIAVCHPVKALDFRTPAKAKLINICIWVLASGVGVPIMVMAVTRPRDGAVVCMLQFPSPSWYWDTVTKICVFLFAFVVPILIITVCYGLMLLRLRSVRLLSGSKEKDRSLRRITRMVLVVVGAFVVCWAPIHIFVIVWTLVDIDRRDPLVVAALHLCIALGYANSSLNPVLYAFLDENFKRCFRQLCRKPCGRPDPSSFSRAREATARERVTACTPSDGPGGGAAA
Fructose-bisphosphate aldolase, sequence (P9WQA3 whole entry): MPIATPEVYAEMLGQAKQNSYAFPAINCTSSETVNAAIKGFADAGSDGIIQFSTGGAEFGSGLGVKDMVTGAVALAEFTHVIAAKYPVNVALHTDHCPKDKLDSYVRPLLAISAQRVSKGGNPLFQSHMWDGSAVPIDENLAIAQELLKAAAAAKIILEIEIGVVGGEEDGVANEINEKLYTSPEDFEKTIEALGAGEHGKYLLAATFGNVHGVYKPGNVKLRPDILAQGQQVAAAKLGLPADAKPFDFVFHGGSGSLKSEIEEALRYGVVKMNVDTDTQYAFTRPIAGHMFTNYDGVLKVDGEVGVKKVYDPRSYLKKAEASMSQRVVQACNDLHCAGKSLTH
COUP transcription factor 2, sequence (P24468 whole entry): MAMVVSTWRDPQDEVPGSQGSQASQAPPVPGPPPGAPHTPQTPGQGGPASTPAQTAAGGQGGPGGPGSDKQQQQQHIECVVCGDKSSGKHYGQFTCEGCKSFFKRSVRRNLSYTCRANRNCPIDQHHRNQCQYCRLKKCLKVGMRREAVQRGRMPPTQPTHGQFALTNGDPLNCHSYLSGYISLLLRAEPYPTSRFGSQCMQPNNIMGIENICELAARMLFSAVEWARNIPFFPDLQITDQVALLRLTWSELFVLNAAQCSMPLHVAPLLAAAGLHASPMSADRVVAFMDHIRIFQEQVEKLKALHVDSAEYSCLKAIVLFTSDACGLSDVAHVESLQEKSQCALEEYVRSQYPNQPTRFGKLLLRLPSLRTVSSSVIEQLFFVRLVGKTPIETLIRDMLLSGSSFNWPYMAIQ
Protein Wnt-3a, sequence (P27467 whole entry): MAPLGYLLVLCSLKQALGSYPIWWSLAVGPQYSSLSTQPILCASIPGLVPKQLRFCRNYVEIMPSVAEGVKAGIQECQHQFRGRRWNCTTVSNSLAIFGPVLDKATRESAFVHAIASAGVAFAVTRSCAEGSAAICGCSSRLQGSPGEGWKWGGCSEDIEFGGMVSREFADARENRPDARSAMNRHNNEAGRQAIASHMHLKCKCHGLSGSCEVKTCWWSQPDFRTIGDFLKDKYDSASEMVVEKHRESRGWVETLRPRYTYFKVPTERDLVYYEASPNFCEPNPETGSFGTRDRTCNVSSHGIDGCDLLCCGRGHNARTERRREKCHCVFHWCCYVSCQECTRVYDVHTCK
Kappa-type opioid receptor, sequence (P41145 whole entry): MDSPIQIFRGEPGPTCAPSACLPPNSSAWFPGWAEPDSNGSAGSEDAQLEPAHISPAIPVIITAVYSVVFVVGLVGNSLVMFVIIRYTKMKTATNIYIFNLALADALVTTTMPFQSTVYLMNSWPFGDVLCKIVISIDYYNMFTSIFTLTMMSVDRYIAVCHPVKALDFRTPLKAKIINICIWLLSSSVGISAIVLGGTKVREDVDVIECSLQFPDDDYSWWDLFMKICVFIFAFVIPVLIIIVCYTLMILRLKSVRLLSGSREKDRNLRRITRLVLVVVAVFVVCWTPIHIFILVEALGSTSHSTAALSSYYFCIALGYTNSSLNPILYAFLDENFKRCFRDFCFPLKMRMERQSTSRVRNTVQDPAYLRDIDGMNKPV

SMILES: COc1cc(Br)c(CCNc2ccnc3ccccc23)cc1OC
- IC50 [1]: 450 nM (active)

SMILES: Cc1cccn2c(=O)c3cc(C(N)=S)c(=N)n(CCCOC(C)C)c3nc12
- AC50 (cells): 626 nM (active)

SMILES: Cc1c(Cl)ccc2sc(NC(=O)c3ccco3)nc12
- AC50 [2]: 17400 nM (active)

SMILES: O=C(O)[C@H]1CCCC[C@H]1C(=O)N1CCc2ccccc2[C@H]1CNS(=O)(=O)c1ccc([N+](=O)[O-])cc1
- AC50 [3]: 88300 nM (active)

SMILES: COCCNC(=O)C[C@H]1C=C[C@@H](NS(=O)(=O)c2ccc(C)cc2)[C@H](CO)O1
- AC50 [4]: 23900 nM (active)
- AC50 (HeLa): 19900 nM (active)
- AC50 (HEK293): 23900 nM (active)

SMILES: O=C(c1cc(COc2cccc3cnccc23)on1)N1CCCC(CCCO)C1 (configuration not stated)
- AC50 [5]: 519 nM (active)
- IC50 [6]: 2580 nM (active)
- IC50 (Protein Wnt-3a): 338 nM (active)
- AC50 [7]: 1140 nM (active)
- AC50 (INS1): 1410 nM (active)
- AC50 [8]: 1980 nM (active)

SMILES: [O-][n+]1onc2c1CCc1c-2nn(-c2ccccc2)[n+]1[O-]
- AC50 (Caspase-6): 22900 nM (active)

SMILES: COC(=O)c1cc(-c2ccc(OC)cc2)c(-c2ccc(OC)cc2)s1
- IC50 [9]: 1580 nM (active)
- IC50 [10]: > 50000 nM (inactive)
- IC50 [11]: 19800 nM (inactive)
- IC50 (Mu-type opioid receptor): > 50000 nM (inactive)

SMILES: Cc1cc2cc(C#Cc3ccc(C(=O)N4CCCC(CO)C4)cc3)ccc2o1 (configuration not stated)
- IC50 [12]: 3910 nM

SMILES: CN1CCSc2ccc(C(=O)Nc3ccc(Cl)cc3)cc21
- EC50 [13]: 208 nM (active)
- IC50 [14]: 8590 nM (active)
- IC50 [15]: 9210 nM (active)
- EC50 [16]: 148 nM (active)
- EC50 [17]: 321 nM (active)
- EC50 [18]: 366 nM (active)
- IC50 [19]: > 1110 nM (active)
- EC50 (H4): 101 nM (active)

SMILES: C[C@H](CO)N1C[C@H](C)[C@H](CN(C)C(=O)Nc2ccc(F)cc2)OCCCC[C@H](C)Oc2ccc(NC(=O)Nc3ccc(F)cc3)cc2C1=O
- AC50 [20]: > 47000 nM (inactive)
- AC50 [21]: 16100 nM (active)

SMILES: COc1ccc2c3c([nH]c2c1)[C@H](CO)N(C(=O)Nc1cccc(F)c1)CC31CN(S(=O)(=O)c2ccccc2)C1
- AC50 (BHK-21): 34100 nM (active)

SMILES: CCOc1ccccc1NC(=O)c1cccc(NC(=O)C2CCCCC2)c1
- IC50 [22]: 67 nM (active)
- IC50 [23]: 1300 nM (active)

— ChEMBL document CHEMBL1201862, “PubChem BioAssay data set” (2004)
